Assay results reported in patent US9695155B2, “Herbicidal substituted pyrimidinyloxy benzene compounds” (E. I. DU PONT DE NEMOURS AND COMPANY, priority 2013, dated 2017).

Experiments:
Assay in all cases: Test C preemergence
giant foxtail = type: in vivo, Setaria faberii; settings: for Foxtail, Giant plant response rating: preemergence, scale 0 (no effect) to 100 (complete control)
Excerpt: (§1) Seeds of plant species selected from blackgrass (Alopecurus myosuroides), Italian ryegrass (Lolium multiflorum), wheat, winter (winter wheat, Triticum aestivum), galium (catchweed bedstraw, Galium aparine), corn (Zea mays), large (Lg) crabgrass (Digitaria sanguinalis), giant foxtail (Setaria faberii), johnsongrass (Sorghum halepense), lambsquarters (Chenopodium album), morningglory (Ipomoea coccinea), yellow nutsedge (Cyperus esculentus), pigweed (Amaranthus retroflexus), ragweed (common ragweed, Ambrosia elatior), soybean (Glycine max), barnyardgrass (Echinochloa crus-galli), oilseed rape (Brassica napus), waterhemp (common waterhemp, Amaranthus rudis), kochia (Kochia scoparia), wild oat (Avena fatua), surinam grass (Brachiaria decumbens), foxtail, green (green foxtail, Setaria viridis), goosegrass (Eleusine indica), bromegrass, downy (downy bromegrass, Bromus tectorum), nightshade (eastern black nightshade, Solanum ptycanthum), cocklebur (common cocklebur, Xanthium strumarium), cupgrass, woolly (woolly cupgrass, Eriochloa villosa), bermudagrass (Cynodon dactylon), sunflower, (common oilseed sunflower, Helianthus annuus), Russian thistle (Salsola kali), and velvetleaf (Abutilon theophrasti) were planted into a blend of loam soil and sand and treated preemergence with test chemicals formulated in a non-phytotoxic solvent mixture which included a surfactant.
(§2) At the same time, plants selected from these crop and weed species and also barley, winter (winter barley, Hordeum vulgare), windgrass (Apera spica-venti), chickweed (common chickweed, Stellaria media), deadnettle (henbit deadnettle, Lamium amplexicaule), and canarygrass (littleseed canarygrass, Phalaris minor) were planted in pots containing Redi-Earth® planting medium (Scotts Company, 14111 Scottslawn Road, Marysville, Ohio 43041) comprising spaghnum peat moss, vermiculite, wetting agent and starter nutrients and treated with postemergence applications of test chemicals formulated in the same manner. Plants ranged in height from 2 to 18 cm (1- to 4-leaf stage) for postemergence treatments. Treated plants and controls were maintained in a greenhouse for 13 to 15 days, after which time all species were compared to controls and visually evaluated. Plant response ratings, summarized in Table C, are based on a scale of 0 to 100 where 0 is no effect and 100 is complete control. A dash (-) response means no test result.

oilseed rape = type: in vivo, Brassica napus; settings: for Oilseed Rape plant response rating: preemergence, scale 0 (no effect) to 100 (complete control)
Excerpt: as §1, §2

wheat, winter = type: in vivo, Triticum aestivum; settings: for Wheat plant response rating: preemergence, scale 0 (no effect) to 100 (complete control)
Excerpt: as §1, §2

soybean = type: in vivo, Glycine max; settings: for Soybean plant response rating: preemergence, scale 0 (no effect) to 100 (complete control)
Summary of the method: (§3)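 Greenhouse herbicide screen. Pre: seeded loam/sand, sprayed at planting. Post: 1–4 leaf plants (2–18 cm) in peat-based mix. Formulation: solvent mixture + surfactant, non-phytotoxic. Readout: visual % control vs untreated, 13–15 d; dash = not tested.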

velvetleaf = type: in vivo, Abutilon theophrasti; settings: for Velvetleaf plant response rating: preemergence, scale 0 (no effect) to 100 (complete control)
Summary of the method: as §3

Italian ryegrass = type: in vivo, Lolium multiflorum; settings: for Ryegrass, Italian plant response rating: preemergence, scale 0 (no effect) to 100 (complete control)
Summary of the method: as §3

johnsongrass = type: in vivo, Sorghum halepense; settings: for Johnsongrass plant response rating: preemergence, scale 0 (no effect) to 100 (complete control)
Summary of the method: as §3

ragweed = type: in vivo, Ambrosia elatior; settings: for Ragweed plant response rating: preemergence, scale 0 (no effect) to 100 (complete control)
Summary of the method: as §3

waterhemp = type: in vivo, Amaranthus rudis; settings: for Waterhemp plant response rating: preemergence, scale 0 (no effect) to 100 (complete control)
Summary of the method: as §3

blackgrass = type: in vivo, Alopecurus myosuroides; settings: for Blackgrass plant response rating: preemergence, scale 0 (no effect) to 100 (complete control)
Excerpt: as §1, §2

large (Lg) crabgrass = type: in vivo, Digitaria sanguinalis; settings: for Crabgrass, Large plant response rating: preemergence, scale 0 (no effect) to 100 (complete control)
Summary of the method: as §3

barnyardgrass = type: in vivo, Echinochloa crus-galli; settings: for Barnyardgrass plant response rating: preemergence, scale 0 (no effect) to 100 (complete control)
Excerpt: as §1, §2

pigweed = type: in vivo, Amaranthus retroflexus; settings: for Pigweed plant response rating: preemergence, scale 0 (no effect) to 100 (complete control)
Excerpt: as §1, §2

[1] = Preemergence, 31 g ai/ha, scale 0 to 100, 0 no effect, 100 complete control

## N#Cc1cccc(Oc2ncc(Cl)cn2)c1-n1cc(Cl)cn1 [Compound 72]
Giant foxtail; 62 g ai/ha
  Foxtail, Giant plant response rating: 100
Giant foxtail; 125 g ai/ha
  Foxtail, Giant plant response rating: 100
Giant foxtail; 250 g ai/ha
  Foxtail, Giant plant response rating: 100
Giant foxtail; [1]
  Plant response rating, Foxtail, Giant: 100
Oilseed rape; 62 g ai/ha
  Oilseed Rape plant response rating: 100
Oilseed rape; 125 g ai/ha
  Oilseed Rape plant response rating: 100
Oilseed rape; 250 g ai/ha
  Oilseed Rape plant response rating: 100
Oilseed rape; [1]
  Plant response rating, Oilseed Rape: 65
wheat, winter; 62 g ai/ha
  Wheat plant response rating: 0
wheat, winter; 125 g ai/ha
  Wheat plant response rating: 30
wheat, winter; 250 g ai/ha
  Wheat plant response rating: 35
wheat, winter; [1]
  Plant response rating, Wheat: 0
soybean; 62 g ai/ha
  Soybean plant response rating: 55
soybean; 125 g ai/ha
  Soybean plant response rating: 80
soybean; 250 g ai/ha
  Soybean plant response rating: 85
soybean; [1]
  Plant response rating, Soybean: 40
velvetleaf; 62 g ai/ha
  Velvetleaf plant response rating: 95
velvetleaf; 125 g ai/ha
  Velvetleaf plant response rating: 100
velvetleaf; 250 g ai/ha
  Velvetleaf plant response rating: 100
velvetleaf; [1]
  Plant response rating, Velvetleaf: 60
Italian ryegrass; 62 g ai/ha
  Ryegrass, Italian plant response rating: 10
Italian ryegrass; 125 g ai/ha
  Ryegrass, Italian plant response rating: 40
Italian ryegrass; 250 g ai/ha
  Ryegrass, Italian plant response rating: 80
Italian ryegrass; [1]
  Plant response rating, Ryegrass, Italian: 5
johnsongrass; 62 g ai/ha
  Johnsongrass plant response rating: 55
johnsongrass; 125 g ai/ha
  Johnsongrass plant response rating: 100
johnsongrass; 250 g ai/ha
  Johnsongrass plant response rating: 100
johnsongrass; [1]
  Plant response rating, Johnsongrass: 35
ragweed; 62 g ai/ha
  Ragweed plant response rating: 75
ragweed; 125 g ai/ha
  Ragweed plant response rating: 85
ragweed; 250 g ai/ha
  Ragweed plant response rating: 95
ragweed; [1]
  Plant response rating, Ragweed: 55
waterhemp; 62 g ai/ha
  Waterhemp plant response rating: 100
waterhemp; 125 g ai/ha
  Waterhemp plant response rating: 100
waterhemp; 250 g ai/ha
  Waterhemp plant response rating: 100
waterhemp; [1]
  Plant response rating, Waterhemp: 100
blackgrass; 62 g ai/ha
  Blackgrass plant response rating: 90
blackgrass; 125 g ai/ha
  Blackgrass plant response rating: 90
blackgrass; 250 g ai/ha
  Blackgrass plant response rating: 95
blackgrass; [1]
  Plant response rating, Blackgrass: 50
Large (Lg) crabgrass; 62 g ai/ha
  Crabgrass, Large plant response rating: 100
Large (Lg) crabgrass; 125 g ai/ha
  Crabgrass, Large plant response rating: 100
Large (Lg) crabgrass; 250 g ai/ha
  Crabgrass, Large plant response rating: 100
Large (Lg) crabgrass; [1]
  Plant response rating, Crabgrass, Large: 100
barnyardgrass; 62 g ai/ha
  Barnyardgrass plant response rating: 100
barnyardgrass; 125 g ai/ha
  Barnyardgrass plant response rating: 100
barnyardgrass; 250 g ai/ha
  Barnyardgrass plant response rating: 100
barnyardgrass; [1]
  Plant response rating, Barnyardgrass: 75
pigweed; 62 g ai/ha
  Pigweed plant response rating: 100
pigweed; 125 g ai/ha
  Pigweed plant response rating: 100
pigweed; 250 g ai/ha
  Pigweed plant response rating: 100
pigweed; [1]
  Plant response rating, Pigweed: 100
